Patent US7858665B2, “Drugs for chronic pain” (Nicox S.A., priority 2002, dated 2010)

Tests used:
male Swiss mice [1] = assay: Writhing test (acetic acid-induced abdominal contractions); type: in vivo; conditions: for Contractions number: 1 h before i.p. acetic acid, total contractions within 15 minutes
Procedure: Nine groups of male Swiss mice (20-25 g, Charles River), 10 animals each, received by oral administration through gastric tube (gavage) gabapentin in an amount of from 1 to 10 mg/kg or the compound of the invention (XVA, Example 1), hereinafter NO-gabapentin, in an amount of from 1 to 10 mg/kg dissolved in saline solution. One hour after administration of the compound solutions, through intraperitoneal injection the mice received a glacial acetic acid solution (0.5 ml, 0.6%). Within 15 minutes subsequent to the administration of acetic acid, in every animal the number of abdominal contractions was counted. Analysis was carried out in blind.
The results reported in Table 1 are given as the number of total contractions within the observation time (15 minutes).

male Swiss mice [2] = assay: Paw licking test (formalin injected in paw); type: in vivo; conditions: for paw licking Phase I: phase I 0-15 minutes after formalin; for paw licking Phase I / paw licking Phase II: 3 mg/kg oral (gabapentin 17.5 μm/kg, NO-gabapentin 8.5 μm/kg), 1 h before formalin; for paw licking Phase II: phase II 15-30 minutes after formalin
Procedure: Three groups of male Swiss mice (20-25 g, Charles River), 10 animals each, received by oral administration as in Example F1 gabapentin in an amount of 3 mg/kg (17.5 μm/kg) or the compound of formula (XVA, Example 1), hereinafter NO-gabapentin, in an amount of 3 mg/kg (8.5 μm/kg) dissolved in saline solution. The control group received an equal volume of saline solution. One hour after administration of the compound solutions, the mice were injected with formalin in the paw (10 μl).
The formalin injection induced a biphasic reaction. In first phase (phase I, 0-15 minutes) an acute inflammation was observed; in the second phase (phase II, 15-30 minutes) a release of chemical mediators occurred as in neurophatic pain. Within 30 minutes subsequent to formalin injection, in each animal the time in seconds in which the animal licked its paw was recorded. Analysis was carried out in blind.
The results reported in Table 2 are expressed as the entire time in seconds in which paw licking in animals during the first and second phase as defined above was observed.

[3] = tested on: chronic constriction injury of the rat sciatic nerve; assay: Neuropathic pain model: chronic constriction injury of the rat sciatic nerve, vocalization threshold to paw pressure; type: in vivo; conditions: for Vocalization threshold to pressure in the injured paw (VTPP): 175 μmoles/kg, ip, day 14 post lesion
Text: We have tested the antinoceptive effects of compound of formula (XVA, Example 1), hereinafter NO-gabapentin, in the model of neuropathic pain constituted by the chronic constriction injury of the rat sciatic nerve. The parent compound gabapentin has been used as reference drug.
The unilateral peripheal mononeuropathy was obtained according to the method described by Bennet G J and Xie Y K, Pain (33) 1988: 87-107. Sample populations ranging from 8 to 12 rats (SD males weighting 250-300 g) for condition were used. The antinoceptive effect of the drugs was determined by measuring the vocalization threshold (VTPP) elicited by paw pressure both at the injured and at the controlateral side. The test was performed at day 14 post lesion. All compounds were tested for acute antinoceptive effects. Acute effects were determined within 60 min following a single intraperitoneal (i.p.) injection of the drugs prior to the test.
Each group of the rats received gabapentin at the dose of 30 mg/kg (175 μmoles/kg), or an equimolar dose of NO-gabapentin (175 μmoles/kg), or the same volume of vehicle (Control group). The drugs were dissolved (20 mg/mL) in vehicle containing saline: DMSO: Castor oil (68:8:24).

[4] = tested on: human umbilical vein cells; assay: NO generation by NO-donors in endothelial cells (chemiluminescence); type: cell-based; conditions: incubation of 100 μl nicorandil, 5 minutes
Procedure: Plated human umbilical vein cells with density of 10^3 cells/well, have been incubated 5 minutes with NO-donor scalar concentrations (1-100 μg/ml). Incubation medium (physiological solvent, i.e. Tyrode) has been then analysed to ascertain the ability to generate NO by means of: 1) nitric oxide detection by chemiluminescence, As far as chemiluminescence analysis is concerned, a 100 μl aliquot has been injected into reaction chamber of an chemiluminescence analyzer containing glacial acetic acid and potassium iodide. […] As usual in devices measuring chemiluminescence, the produced luminescence is directly proportional to the generated NO levels and can be measured by means of the suitable photomultiplier unity of an chemiluminescence analyzer. The photomultiplier turns incident light into electric voltage, that then is quantitatively registered. Referring to a calibration curve, obtained with scalar nitrite concentrations, it has been possible to quantitatively evaluate the concentration of the generated NO. For example, from incubation of […], an amount of about 10 μM NO was generated.

washed human platelets = assay: NO generation by NO-donors in platelets (chemiluminescence); type: cell-based; conditions: incubation of 100 μM, 5 minutes
Procedure: Washed human platelets have been used, obtained as described by Radomski et al., (Br. J. Pharmacol. 92, 639-1987). Amounts of 0.4 ml were incubated 5 minutes with scalar NO-donor concentrations (1-100 μg/ml). […] As to the chemiluminescence assay, also in this case on the basis of a calibration curve plotted with nitrite scalar concentrations, it has been possible to quantitatively define the concentration of the generated NO. For example, after incubation of 100 μM nicorandil, an amount of 35 μM of NO was generated.

SMILES: NCC1(CC(=O)O)CCCCC1 [Gabapentin, 1-(aminomethyl)cyclohexaneacetic acid, reference compound]
- Contractions number (male Swiss mice [1]; dose 1 mg/kg oral): 32
- Contractions number (male Swiss mice [1]; dose 3 mg/kg oral): 22
- Contractions number (male Swiss mice [1]; dose 10 mg/kg oral): 27
- paw licking Phase I (male Swiss mice [2]): 85 s
- paw licking Phase II (male Swiss mice [2]): 30 s
- Vocalization threshold to pressure in the injured paw (VTPP) ([3]; 0 min post-dosing): 160 ± 10 grams
- Vocalization threshold to pressure in the injured paw (VTPP) ([3]; 5 min post-dosing): 165 ± 23 grams
- Vocalization threshold to pressure in the injured paw (VTPP) ([3]; 10 min post-dosing): 191 ± 29 grams
- Vocalization threshold to pressure in the injured paw (VTPP) ([3]; 20 min post-dosing): 250 ± 24 grams
- Vocalization threshold to pressure in the injured paw (VTPP) ([3]; 40 min post-dosing): 266 ± 26 grams
- Vocalization threshold to pressure in the injured paw (VTPP) ([3]; 60 min post-dosing): 250 ± 38 grams

SMILES: O=C(O)CC1(CNC(=O)c2ccc(CO[N+](=O)[O-])cc2)CCCCC1 [NO-gabapentin, 1-[4-(nitrooxymethyl)benzoylaminomethyl]-cyclohexaneacetic acid]
- activity in inhibiting abdominal contraction amount, compared with gabapentin (male Swiss mice [1]; 1 to 10 mg/kg oral): more active than precursor drug
- Contractions number (male Swiss mice [1]; dose 1 mg/kg oral): 24
- Contractions number (male Swiss mice [1]; dose 3 mg/kg oral): 15
- Contractions number (male Swiss mice [1]; dose 10 mg/kg oral): 15
- paw licking Phase I (male Swiss mice [2]): 50 s
- activity in inhibiting paw licking in first phase, compared with gabapentin (male Swiss mice [2]; phase I, molar dose corresponding to 50% of gabapentin): more active than the starting drug
- paw licking Phase II (male Swiss mice [2]): 60 s
- effectiveness in second phase, compared with gabapentin (male Swiss mice [2]; phase II, molar dose corresponding to 50% of gabapentin): less effective
- Vocalization threshold to pressure in the injured paw (VTPP) ([3]; 0 min post-dosing): 153 ± 10 grams
- Vocalization threshold to pressure in the injured paw (VTPP) ([3]; 5 min post-dosing): 187 ± 10 grams
- Vocalization threshold to pressure in the injured paw (VTPP) ([3]; 10 min post-dosing): 307 ± 14 grams
- Vocalization threshold to pressure in the injured paw (VTPP) ([3]; 20 min post-dosing): 325 ± 08 grams
- Vocalization threshold to pressure in the injured paw (VTPP) ([3]; 40 min post-dosing): 390 ± 11 grams
- Vocalization threshold to pressure in the injured paw (VTPP) ([3]; 60 min post-dosing): 382 ± 09 grams
- antinoceptive efficacy compared with gabapentin ([3]; equimolar dose 175 μmoles/kg i.p.): more efficacious than gabapentin

SMILES: O=C(NCCO[N+](=O)[O-])c1cccnc1 [nicorandil]
- amount of NO generated [4]: about 10 μM
- amount of NO generated (washed human platelets): 35 µM
